{"source": "paper PMC5011342", "about": "“A high throughput drug screening assay to identify compounds that promote oligodendrocyte differentiation using acutely dissociated and purified oligodendrocyte precursor cells” (BMC Research Notes, 2016)", "key": {"[1]": {"test_system": "expanded OPCs", "assay": "cells", "conditions": "for viability at 0.1 µM / viability at 1 µM / viability at 10 µM: Rattus norvegicus, 72 h; for 0.1 µM (% DMSO) / 1 µM (% DMSO) / 10 µM (% DMSO): alamarBlue viability of expanded OPCs, relative to DMSO control; for 0.1 µM (% DMSO): compound at 0.1 µM; for 1 µM (% DMSO): compound at 1 µM; for 10 µM (% DMSO): compound at 10 µM", "in_short": "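Expanded OPCs seeded at 10,000 cells/well in differentiation media, then exposed to NCC library compounds at 10, 1 and 0.1 µM (quadruplicate, 0.1% DMSO) for three days. Viability read as alamarBlue fluorescence (560/590 nm) after 4 h at 37 °C; tunicamycin 5 ng/ml served as toxicity control.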"}, "[2]": {"test_system": "acutely dissociated and purified rat OPCs", "assay": "Acute OL differentiation assay (MBP expression/cell, immunofluorescent image quantification)", "type": "cell-based", "conditions": "Rattus norvegicus; for activation at 0.4 µM: test compound at 0.4 uM, read-out: 0.4 uM (% Quet)", "in_short": "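Oligodendrocyte precursor cells were enriched from P6-P7 Sprague–Dawley rat brains by immunopanning (RAN-2 and GalC depletion, O4 selection), plated at 5000 cells/well in serum-free, mitogen-free differentiation media on PDL/laminin 96-well view plates, centrifuged at 200×g, and pre-incubated 1–2 h before test compounds were added in quadruplicate. On DIV4, cells were fixed, stained for MBP and DAPI, imaged automatically, and MBP expression per cell was quantified.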"}, "[3]": {"conditions": "read-out: 0.1 µM (% DMSO), alamarBlue viability of expanded OPCs, compound at 0.1 µM, sheet All Tox data"}, "[4]": {"conditions": "read-out: 1 µM (% DMSO), alamarBlue viability of expanded OPCs, compound at 1 µM, sheet All Tox data"}, "[5]": {"conditions": "read-out: 10 µM (% DMSO), alamarBlue viability of expanded OPCs, compound at 10 µM, sheet All Tox data"}, "[6]": {"conditions": "2 uM test compound, relative to quetiapine, sheet \"All OLga data\", read-out: OL differentiation, 2 uM (% Quet)"}, "[7]": {"conditions": "10 uM test compound, relative to quetiapine, sheet \"All OLga data\", read-out: OL differentiation, 10 uM (% Quet)"}, "[8]": {"conditions": "read-out: 0.1 µM (% DMSO), alamarBlue viability, NCC library compound at 0.1 µM, sheet \"All Tox data\""}, "[9]": {"conditions": "read-out: 1 µM (% DMSO), alamarBlue viability, NCC library compound at 1 µM, sheet \"All Tox data\""}, "[10]": {"conditions": "read-out: 10 µM (% DMSO), alamarBlue viability, NCC library compound at 10 µM, sheet \"All Tox data\""}, "[11]": {"conditions": "test compound at 2 uM, NCC library screen, sheet \"All OLga data\", relative to quetiapine, read-out: 2 uM (% Quet)"}, "[12]": {"conditions": "test compound at 10 uM, NCC library screen, sheet \"All OLga data\", relative to quetiapine, read-out: 10 uM (% Quet)"}, "[13]": {"conditions": "NCC library screen, sheet \"All OLga data\", relative to quetiapine"}}, "note": "Like-named read-outs stand apart in the source and are kept apart here."}
{"compound": "Cn1nnc2c(C(N)=O)ncn2c1=O", "note": "[Temozolomide]", "values": [{"measurement": "viability at 0.1 µM", "setting": "[1]; [3]", "value": 105, "unit": "%"}, {"measurement": "viability at 1 µM", "setting": "[1]; [4]", "value": 94.7, "unit": "%"}, {"measurement": "viability at 10 µM", "setting": "[1]; [5]", "value": 100, "unit": "%"}, {"measurement": "activation at 2 µM", "setting": "[2]; [6]", "value": -10.2, "unit": "%"}, {"measurement": "activation at 10 µM", "setting": "[2]; [7]", "value": -8.5, "unit": "%"}]}
{"compound": "Nc1ccn([C@@H]2CS[C@H](CO)O2)c(=O)n1", "note": "[Lamivudine]", "values": [{"measurement": "viability at 0.1 µM", "setting": "[1]; [3]", "value": 87.3, "unit": "%"}, {"measurement": "viability at 1 µM", "setting": "[1]; [4]", "value": 96, "unit": "%"}, {"measurement": "viability at 10 µM", "setting": "[1]; [5]", "value": 113, "unit": "%"}, {"measurement": "0.1 µM (% DMSO)", "setting": "[1]", "value": 94.3, "unit": "% DMSO"}, {"measurement": "1 µM (% DMSO)", "setting": "[1]", "value": 88.1, "unit": "% DMSO"}, {"measurement": "10 µM (% DMSO)", "setting": "[1]", "value": 79.4, "unit": "% DMSO"}, {"measurement": "activation at 2 µM", "setting": "[2]; [6]", "value": -2.4, "unit": "%"}, {"measurement": "activation at 10 µM", "setting": "[2]; [7]", "value": -27.9, "unit": "%"}, {"measurement": "activation at 2 µM", "setting": "[2]; test compound at 2 uM, MBP expression relative to quetiapine, NCC library screen, sheet \"All OLga data\", read-out: 2 uM (% Quet)", "value": 2.9, "unit": "%"}, {"measurement": "activation at 10 µM", "setting": "[2]; test compound at 10 uM, MBP expression relative to quetiapine, NCC library screen, sheet \"All OLga data\", read-out: 10 uM (% Quet)", "value": -9.8, "unit": "%"}]}
{"compound": "OCCN1C[C@H](O)[C@@H](O)[C@H](O)[C@H]1CO", "note": "[Miglitol]", "values": [{"measurement": "viability at 0.1 µM", "setting": "[1]; [3]", "value": 90.6, "unit": "%"}, {"measurement": "viability at 1 µM", "setting": "[1]; [4]", "value": 92.6, "unit": "%"}, {"measurement": "viability at 10 µM", "setting": "[1]; [5]", "value": 90.3, "unit": "%"}, {"measurement": "activation at 2 µM", "setting": "[2]; [6]", "value": 13.5, "unit": "%"}, {"measurement": "activation at 10 µM", "setting": "[2]; [7]", "value": -3.3, "unit": "%"}]}
{"compound": "Cc1nnc(SCC2=C(C(=O)O)N3C(=O)[C@@H](NC(=O)Cn4cnnn4)[C@H]3SC2)s1", "note": "[Cefazolin]", "values": [{"measurement": "viability at 0.1 µM", "setting": "[1]; [8]", "value": 95.1, "unit": "%"}, {"measurement": "viability at 1 µM", "setting": "[1]; [9]", "value": 92.5, "unit": "%"}, {"measurement": "viability at 10 µM", "setting": "[1]; [10]", "value": 96.9, "unit": "%"}, {"measurement": "activation at 2 µM", "setting": "[2]; [11]", "value": 6.4, "unit": "%"}, {"measurement": "activation at 10 µM", "setting": "[2]; [12]", "value": 0.95, "unit": "%"}]}
{"compound": "COCCOC(=O)C1=C(C)NC(C)=C(C(=O)OC(C)C)C1c1cccc([N+](=O)[O-])c1", "note": "(stereo not shown) [Nimodipine]", "values": [{"measurement": "viability at 0.1 µM", "setting": "[1]; [8]", "value": 88, "unit": "%"}, {"measurement": "viability at 1 µM", "setting": "[1]; [9]", "value": 87.4, "unit": "%"}, {"measurement": "viability at 10 µM", "setting": "[1]; [10]", "value": 54.5, "unit": "%"}, {"measurement": "activation at 0.4 µM", "setting": "[2]; [13]", "value": -13.1, "unit": "%"}, {"measurement": "activation at 2 µM", "setting": "[2]; [11]", "value": 4.8, "unit": "%"}]}
{"compound": "Cc1nc2n(c(=O)c1CCN1CCC(c3noc4cc(F)ccc34)CC1)CCCC2", "note": "[Risperidone]", "values": [{"measurement": "viability at 0.1 µM", "setting": "[1]; [3]", "value": 92.3, "unit": "%"}, {"measurement": "viability at 1 µM", "setting": "[1]; [4]", "value": 99.8, "unit": "%"}, {"measurement": "viability at 10 µM", "setting": "[1]; [5]", "value": 90.2, "unit": "%"}, {"measurement": "activation at 2 µM", "setting": "[2]; [6]", "value": 2.4, "unit": "%"}, {"measurement": "activation at 10 µM", "setting": "[2]; [7]", "value": 31.6, "unit": "%"}]}
{"compound": "CC(C)[N+](C)(CCOC(=O)C1c2ccccc2Oc2ccccc21)C(C)C", "note": "[Propantheline]", "values": [{"measurement": "viability at 0.1 µM", "setting": "[1]; [8]", "value": 91.7, "unit": "%"}, {"measurement": "viability at 1 µM", "setting": "[1]; [9]", "value": 112, "unit": "%"}, {"measurement": "viability at 10 µM", "setting": "[1]; [10]", "value": 148, "unit": "%"}, {"measurement": "activation at 2 µM", "setting": "[2]; [11]", "value": 36.4, "unit": "%"}, {"measurement": "activation at 10 µM", "setting": "[2]; [12]", "value": 90.8, "unit": "%"}]}
{"compound": "CC(C)(S)[C@@H](N)C(=O)O", "note": "[Penicillamine]", "values": [{"measurement": "0.1 µM (% DMSO)", "setting": "[1]", "value": 86.6, "unit": "% DMSO"}, {"measurement": "1 µM (% DMSO)", "setting": "[1]", "value": 87.9, "unit": "% DMSO"}, {"measurement": "10 µM (% DMSO)", "setting": "[1]", "value": 92.6, "unit": "% DMSO"}, {"measurement": "activation at 2 µM", "setting": "[2]; [11]", "value": -0.01, "unit": "%"}, {"measurement": "activation at 10 µM", "setting": "[2]; [12]", "value": 6, "unit": "%"}]}
{"compound": "Cc1ncc2n1-c1ccc(Cl)cc1C(c1ccccc1F)=NC2", "note": "[Midazolam]", "values": [{"measurement": "viability at 0.1 µM", "setting": "[1]; [3]", "value": 91, "unit": "%"}, {"measurement": "viability at 1 µM", "setting": "[1]; [4]", "value": 99.9, "unit": "%"}, {"measurement": "viability at 10 µM", "setting": "[1]; [5]", "value": 128, "unit": "%"}, {"measurement": "activation at 2 µM", "setting": "[2]; [6]", "value": -15.2, "unit": "%"}, {"measurement": "activation at 10 µM", "setting": "[2]; [7]", "value": -81.7, "unit": "%"}]}
{"compound": "O=C(O)CCc1nc(-c2ccccc2)c(-c2ccccc2)o1", "note": "[Oxaprozin]", "values": [{"measurement": "viability at 0.1 µM", "setting": "[1]; [3]", "value": 91.8, "unit": "%"}, {"measurement": "viability at 1 µM", "setting": "[1]; [4]", "value": 86.6, "unit": "%"}, {"measurement": "viability at 10 µM", "setting": "[1]; [5]", "value": 78, "unit": "%"}, {"measurement": "activation at 2 µM", "setting": "[2]; [6]", "value": -15.3, "unit": "%"}, {"measurement": "activation at 10 µM", "setting": "[2]; [7]", "value": -15, "unit": "%"}]}
{"compound": "CC=CC(=O)N(CC)c1ccccc1C", "note": "(mixture of isomers) [Crotamiton]", "values": [{"measurement": "viability at 0.1 µM", "setting": "[1]; [3]", "value": 92.3, "unit": "%"}, {"measurement": "viability at 1 µM", "setting": "[1]; [4]", "value": 106, "unit": "%"}, {"measurement": "viability at 10 µM", "setting": "[1]; [5]", "value": 97.8, "unit": "%"}, {"measurement": "activation at 2 µM", "setting": "[2]; [6]", "value": 1.7, "unit": "%"}, {"measurement": "activation at 10 µM", "setting": "[2]; [7]", "value": 1.9, "unit": "%"}]}
{"compound": "C[C@@H]1CN(CCCn2c3ccccc3c3ccccc32)C[C@H](C)N1", "note": "[Rimcazole]", "values": [{"measurement": "viability at 0.1 µM", "setting": "[1]; [8]", "value": 61.7, "unit": "%"}, {"measurement": "viability at 1 µM", "setting": "[1]; [9]", "value": 33.6, "unit": "%"}, {"measurement": "viability at 10 µM", "setting": "[1]; [10]", "value": 9.5, "unit": "%"}, {"measurement": "activation at 0.08 µM", "setting": "[2]; test compound at 0.08 uM, NCC library screen, sheet \"All OLga data\", relative to quetiapine, read-out: 0.08 uM (% Quet)", "value": -5.2, "unit": "%"}, {"measurement": "activation at 0.4 µM", "setting": "[2]; [13]", "value": 23.1, "unit": "%"}]}
{"compound": "CN1CCC[C@H]1c1cccnc1", "note": "[Nicotine]", "values": [{"measurement": "viability at 0.1 µM", "setting": "[1]; read-out: 0.1 µM (% DMSO)", "value": 92.9, "unit": "%"}, {"measurement": "viability at 1 µM", "setting": "[1]; read-out: 1 µM (% DMSO)", "value": 89.4, "unit": "%"}, {"measurement": "viability at 10 µM", "setting": "[1]; read-out: 10 µM (% DMSO)", "value": 93.5, "unit": "%"}, {"measurement": "activation at 2 µM", "setting": "[2]; read-out: 2 uM (% Quet)", "value": 12.3, "unit": "%"}, {"measurement": "activation at 10 µM", "setting": "[2]; read-out: 10 uM (% Quet)", "value": 10.9, "unit": "%"}]}
